Experimental data taken from US20250179061A1 (SIRONAX LTD., priority 2022, published 2025).
pIC50: −log10 of the molar value.

tested on: HT-29 cells; assay: HT-29 necroptosis cell viability assay (TNF-α/SMAC mimetic/zVAD-FMK, CellTiter-Glo); type: cell-based; settings: HT-29 necroptosis cell viability assay; class symbols for IC50; read-out: Activity
Procedure, shortened: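 HT-29 cells (~5,000/well, overnight) in FBS-free McCoy's 5A with TNF-α 10 ng/ml, SMAC mimetic 6 μM and zVAD-FMK 10 μM plus 10-point 1:3 compound titration, 20 h at 37°C. ATP measured by CellTiter-Glo luminescence; IC50 as geometric mean of duplicates.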

SMILES | pIC50
Cc1nc(C2CC(C(N)=O)C2)sc1Oc1ccc(-n2ncn(Cc3c(F)cccc3F)c2=O)cc1F (centres unmarked) [Example 167, 3-(5-(4-(4-(2,6-difluorobenzyl)-5-oxo-4,5-dihydro-1H-1,2,4-triazol-1-yl)-2-fluorophenoxy)-4-methylthiazol-2-yl)cyclobutane-1-carboxamide] | > 7.00

same assay, conditions: Homo sapiens, HT-29, HT-29 necroptosis cell viability assay; class symbols for IC50; read-out: Activity

SMILES | pIC50
Cc1nc(C(C)(C)O)cn1Cc1ccc(-n2nc3n(c2=O)C(c2ccccc2)CC3)cc1F (centres unmarked) [Example 136, 2-(3-fluoro-4-((4-(2-hydroxypropan-2-yl)-2-methyl-1H-imidazol-1-yl)methyl)phenyl)-5-phenyl-2,5,6,7-tetrahydro-3H-pyrrolo[2,1-c][1,2,4]triazol-3-one] | 5.00 to 6.00
Cc1nc(C(C)(C)O)cn1Cc1ccc(-n2ncn(Cc3c(F)cccc3F)c2=O)cc1F [Example 137, 4-(2,6-difluorobenzyl)-2-(3-fluoro-4-((4-(2-hydroxypropan-2-yl)-2-methyl-1H-imidazol-1-yl)methyl)phenyl)-2,4-dihydro-3H-1,2,4-triazol-3-one] | 5.00 to 6.00
Cc1nc(CC(N)=O)c(Oc2ccc(-n3ncn(Cc4c(F)cccc4F)c3=O)cc2F)s1 [Example 138, 2-(5-(4-(4-(2,6-difluorobenzyl)-5-oxo-4,5-dihydro-1H-1,2,4-triazol-1-yl)-2-fluorophenoxy)-2-methylthiazol-4-yl)acetamide] | > 7.00
Cc1nc(CC#N)sc1Oc1ccc(-n2ncn(Cc3c(F)cccc3F)c2=O)cc1Cl [Example 139, 2-(5-(2-chloro-4-(4-(2,6-difluorobenzyl)-5-oxo-4,5-dihydro-1H-1,2,4-triazol-1-yl)phenoxy)-4-methylthiazol-2-yl)acetonitrile] | > 7.00
Cn1nc(CC#N)cc1Oc1ccc(-n2ncn(Cc3c(F)cccc3F)c2=O)cc1F [Example 140, 2-(5-(4-(4-(2,6-difluorobenzyl)-5-oxo-4,5-dihydro-1H-1,2,4-triazol-1-yl)-2-fluorophenoxy)-1-methyl-1H-pyrazol-3-yl)acetonitrile] | > 7.00
Cc1nc(CC#N)cn1Cc1ccc(-n2ncn(Cc3c(F)cccc3F)c2=O)cc1F [Example 141, 2-(1-(4-(4-(2,6-difluorobenzyl)-5-oxo-4,5-dihydro-1H-1,2,4-triazol-1-yl)-2-fluorobenzyl)-2-methyl-1H-imidazol-4-yl)acetonitrile] | 6.00 to 7.00
Cc1nc(CC#N)c(C)n1Cc1ccc(-n2ncn(Cc3c(F)cccc3F)c2=O)cc1F [Example 142, 2-(1-(4-(4-(2,6-difluorobenzyl)-5-oxo-4,5-dihydro-1H-1,2,4-triazol-1-yl)-2-fluorobenzyl)-2,5-dimethyl-1H-imidazol-4-yl)acetonitrile] | 5.00 to 6.00
Cc1c(CC(N)=O)nn(C)c1Oc1ccc(-n2ncn(Cc3c(F)cccc3F)c2=O)cc1F [Example 143, 2-(5-(4-(4-(2,6-difluorobenzyl)-5-oxo-4,5-dihydro-1H-1,2,4-triazol-1-yl)-2-fluorophenoxy)-1,4-dimethyl-1H-pyrazol-3-yl)acetamide] | > 7.00
CC1(O)CN(c2nc(C(F)F)c(Oc3ccc(-n4ncn(Cc5c(F)cccc5F)c4=O)cc3F)s2)C1 [Example 144, 4-(2,6-difluorobenzyl)-2-(4-((4-(difluoromethyl)-2-(3-hydroxy-3-methylazetidin-1-yl)thiazol-5-yl)oxy)-3-fluorophenyl)-2,4-dihydro-3H-1,2,4-triazol-3-one] | > 7.00
O=c1n(Cc2c(F)cccc2F)cnn1-c1ccc(Oc2scnc2CO)c(F)c1 [Example 145, 4-(2,6-difluorobenzyl)-2-(3-fluoro-4-((4-(hydroxymethyl)thiazol-5-yl)oxy)phenyl)-2,4-dihydro-3H-1,2,4-triazol-3-one] | > 7.00
Cc1nc(CO)c(Oc2ccc(-n3ncn(Cc4c(F)cccc4F)c3=O)cc2)s1 [Example 146] | 6.00 to 7.00
O=c1n(Cc2c(F)cccc2F)cnn1-c1ccc(Oc2scnc2C(F)F)c(F)c1 [Example 147, 4-(2,6-difluorobenzyl)-2-(4-((4-(difluoromethyl)thiazol-5-yl)oxy)-3-fluorophenyl)-2,4-dihydro-3H-1,2,4-triazol-3-one] | > 7.00
Cc1nc(C(=O)NCCN)sc1Oc1ccc(-n2ncn(Cc3ccccc3F)c2=O)cc1F [Example 148, N-(2-aminoethyl)-5-(2-fluoro-4-(4-(2-fluorobenzyl)-5-oxo-4,5-dihydro-1H-1,2,4-triazol-1-yl)phenoxy)-4-methylthiazole-2-carboxamide] | > 7.00
O=c1n(Cc2c(F)cccc2F)cnn1-c1ccc(Oc2ncsc2C(F)F)c(F)c1 [Example 152, 4-(2,6-difluorobenzyl)-2-(4-((5-(difluoromethyl)thiazol-4-yl)oxy)-3-fluorophenyl)-2,4-dihydro-3H-1,2,4-triazol-3-one] | > 7.00
CC1(N)CN(c2nc(C(F)F)c(Oc3ccc(-n4ncn(Cc5c(F)cccc5F)c4=O)cc3F)s2)C1 [Example 153, 2-(4-((2-(3-amino-3-methylazetidin-1-yl)-4-(difluoromethyl)thiazol-5-yl)oxy)-3-fluorophenyl)-4-(2,6-difluorobenzyl)-2,4-dihydro-3H-1,2,4-triazol-3-one] | > 7.00
Cc1nc(CC(C)(C)O)sc1Oc1ccc(-n2ncn(Cc3c(F)cccc3F)c2=O)cc1F [Example 154, 4-(2,6-difluorobenzyl)-2-(3-fluoro-4-((2-(2-hydroxy-2-methylpropyl)-4-methylthiazol-5-yl)oxy)phenyl)-2,4-dihydro-3H-1,2,4-triazol-3-one] | > 7.00

SMILES | pIC50
Cc1nc(CC#N)sc1Oc1ccc(-n2ncn(Cc3c(F)cccc3F)c2=O)cc1F [Example 155, 2-(5-(4-(4-(2,6-difluorobenzyl)-5-oxo-4,5-dihydro-1H-1,2,4-triazol-1-yl)-2-fluorophenoxy)-4-methylthiazol-2-yl)acetonitrile] | > 7.00
Cc1nc(CO)sc1Oc1ccc(-n2ncn(Cc3c(F)cccc3F)c2=O)cc1F [Example 156, 4-(2,6-difluorobenzyl)-2-(3-fluoro-4-((2-(hydroxymethyl)-4-methylthiazol-5-yl)oxy)phenyl)-2,4-dihydro-3H-1,2,4-triazol-3-one] | > 7.00
Cc1nc(CO)sc1Oc1ccc(-n2ncn(Cc3c(F)cccc3F)c2=O)cc1 [Example 157, 4-(2,6-difluorobenzyl)-2-(4-((2-(hydroxymethyl)-4-methylthiazol-5-yl)oxy)phenyl)-2,4-dihydro-3H-1,2,4-triazol-3-one] | > 7.00
Cc1c(CO)nn(C)c1Oc1ccc(-n2nc3n(c2=O)C(c2ccccc2)CC3)cc1F (centres unmarked) [Example 158, 2-(3-fluoro-4-((3-(hydroxymethyl)-1,4-dimethyl-1H-pyrazol-5-yl)oxy)phenyl)-5-phenyl-2,5,6,7-tetrahydro-3H-pyrrolo[2,1-c][1,2,4]triazol-3-one] | > 7.00
Cc1nc(CN)sc1Oc1ccc(-n2ncn(Cc3c(F)cccc3F)c2=O)cc1F [Example 159, 2-(4-((2-(aminomethyl)-4-methylthiazol-5-yl)oxy)-3-fluorophenyl)-4-(2,6-difluorobenzyl)-2,4-dihydro-3H-1,2,4-triazol-3-one] | > 7.00
Cc1nc(CN)sc1Oc1ccc(-n2ncn(Cc3c(F)cccc3F)c2=O)cc1 [Example 160, 2-(4-((2-(aminomethyl)-4-methylthiazol-5-yl)oxy)phenyl)-4-(2,6-difluorobenzyl)-2,4-dihydro-3H-1,2,4-triazol-3-one] | 6.00 to 7.00
O=c1n(Cc2c(F)cccc2F)cnn1C1CCC(Oc2ccccc2)C1 (centres unmarked) [Example 161, 4-(2,6-difluorobenzyl)-2-(3-phenoxycyclopentyl)-2,4-dihydro-3H-1,2,4-triazol-3-one] | 5.00 to 6.00
Cc1ncsc1OC1CCC(n2ncn(Cc3c(F)cccc3F)c2=O)CC1 (centres unmarked) [Example 162, 4-(2,6-difluorobenzyl)-2-(4-((4-methylthiazol-5-yl)oxy)cyclohexyl)-2,4-dihydro-3H-1,2,4-triazol-3-one] | 6.00 to 7.00
Cc1nc(C(C)N)sc1Oc1ccc(-n2ncn(Cc3c(F)cccc3F)c2=O)cc1F (centres unmarked) [Example 163, 2-(4-((2-(1-aminoethyl)-4-methylthiazol-5-yl)oxy)-3-fluorophenyl)-4-(2,6-difluorobenzyl)-2,4-dihydro-3H-1,2,4-triazol-3-one] | > 7.00
C/C(=N\O)c1nc(C)c(Oc2ccc(-n3ncn(Cc4c(F)cccc4F)c3=O)cc2F)s1 [Example 164, 4-(2,6-difluorobenzyl)-2-(3-fluoro-4-((2-(1-(hydroxyimino)ethyl)-4-methylthiazol-5-yl)oxy)phenyl)-2,4-dihydro-3H-1,2,4-triazol-3-one] | > 7.00
O=c1n(Cc2c(F)cccc2F)cnn1-c1cnc(Oc2ccccc2)s1 [Example 165, 4-(2,6-difluorobenzyl)-2-(2-phenoxythiazol-5-yl)-2,4-dihydro-3H-1,2,4-triazol-3-one] | 6.00 to 7.00
Cc1nc(Oc2cccnc2)sc1-n1ncn(Cc2c(F)cccc2F)c1=O [Example 166, 4-(2,6-difluorobenzyl)-2-(4-methyl-2-(pyridin-3-yloxy)thiazol-5-yl)-2,4-dihydro-3H-1,2,4-triazol-3-one] | 6.00 to 7.00
Cc1nc(CC(N)=O)sc1Oc1ccc(-n2ncn(Cc3c(F)cccc3F)c2=O)cc1F [Example 168, 2-(5-(4-(4-(2,6-difluorobenzyl)-5-oxo-4,5-dihydro-1H-1,2,4-triazol-1-yl)-2-fluorophenoxy)-4-methylthiazol-2-yl)acetamide] | > 7.00
COc1cc(Oc2nc(C)c(-n3ncn(Cc4c(F)cccc4F)c3=O)s2)ccn1 [Example 169, 4-(2,6-difluorobenzyl)-2-(2-((2-methoxypyridin-4-yl)oxy)-4-methylthiazol-5-yl)-2,4-dihydro-3H-1,2,4-triazol-3-one] | 5.00 to 6.00
Cc1nc(C(F)(F)C(=O)O)sc1Oc1ccc(-n2ncn(Cc3c(F)cccc3F)c2=O)cc1F [Example 170, 2-(5-(4-(4-(2,6-difluorobenzyl)-5-oxo-4,5-dihydro-1H-1,2,4-triazol-1-yl)-2-fluorophenoxy)-4-methylthiazol-2-yl)-2,2-difluoroacetic acid] | 6.00 to 7.00
